Consider 7 compounds from patent US5610174A, “Use of α1A -selective adrenoceptor agonists for the treatment of urinary incontinence” (priority 1995, dated 1997).

The structures appear in SMILES notation. Where two headings read alike, the source gives them in different places.

Data set [1] concerns the target T1, human urethra (α1-adrenoceptor) (Homo sapiens, UniProt P35348).
T1 construct: Tissue samples from the proximal urethra of male humans; from tissue; host or cells: human male proximal urethra strips
T1 sequence (P35348 1-466): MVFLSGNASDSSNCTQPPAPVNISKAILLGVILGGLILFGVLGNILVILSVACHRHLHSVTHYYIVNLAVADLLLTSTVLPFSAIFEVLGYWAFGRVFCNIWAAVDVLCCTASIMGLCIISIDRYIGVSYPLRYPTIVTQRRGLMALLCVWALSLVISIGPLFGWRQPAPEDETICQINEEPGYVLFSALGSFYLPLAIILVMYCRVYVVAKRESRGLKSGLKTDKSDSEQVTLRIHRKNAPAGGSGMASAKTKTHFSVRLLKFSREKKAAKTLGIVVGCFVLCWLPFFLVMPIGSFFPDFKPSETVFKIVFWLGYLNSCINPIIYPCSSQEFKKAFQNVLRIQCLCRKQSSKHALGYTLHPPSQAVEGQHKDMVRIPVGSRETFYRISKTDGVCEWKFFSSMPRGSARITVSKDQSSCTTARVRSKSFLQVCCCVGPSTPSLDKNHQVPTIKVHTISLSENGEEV
As to the kind of experiment: Contractile study in isolated human male urethra. An excerpt:
(§1) In addition, similar studies were done using bladder neck tissue from female dogs. In order to identify the specific receptor subtype in each tissue, the pharmacological profile was compared to the profiles for these same drugs at the cloned human α1A, α1B, or α1C subtypes.
(§2) Tissue samples from the proximal urethra of male humans and male and female rabbits, as well as tissue samples from both the proximal urethra and bladder neck of male and female dogs were cut into transverse strips (3×10 mm) and suspended under 0.5 g tension in Krebs' physiological buffer at 37° C. To determine agonist potency (pEC50 )and antagonist affinity constants (pKB), concentration-effect curves to the non-selective agonist phenylepherine were constructed in the absence and in the presence of increasing concentrations of the antagonist. Up to four sequential curves were constructed in each tissue. Antagonists were allowed to equilibrate for 1h before each concentration-effect curve, and the drugs were completely washed out in between successive curves. In each experiment, one tissue served as a "time control", in which no antagonist was added so that changes in tissue sensitivity could be assessed as a function of time. […] In instances in which a single concentration of antagonist was used, pKB values were determined by the equation: […], where CR is defined as the ratio of the agonist EC50 in the presence of the antagonist to that in the absence of the antagonist.

In data set [2] the target is T2, dog BN, male (α1-adrenoceptor) (Canis lupus, UniProt A0A8I3NK63).
T2 sequence (A0A8I3NK63 1-466): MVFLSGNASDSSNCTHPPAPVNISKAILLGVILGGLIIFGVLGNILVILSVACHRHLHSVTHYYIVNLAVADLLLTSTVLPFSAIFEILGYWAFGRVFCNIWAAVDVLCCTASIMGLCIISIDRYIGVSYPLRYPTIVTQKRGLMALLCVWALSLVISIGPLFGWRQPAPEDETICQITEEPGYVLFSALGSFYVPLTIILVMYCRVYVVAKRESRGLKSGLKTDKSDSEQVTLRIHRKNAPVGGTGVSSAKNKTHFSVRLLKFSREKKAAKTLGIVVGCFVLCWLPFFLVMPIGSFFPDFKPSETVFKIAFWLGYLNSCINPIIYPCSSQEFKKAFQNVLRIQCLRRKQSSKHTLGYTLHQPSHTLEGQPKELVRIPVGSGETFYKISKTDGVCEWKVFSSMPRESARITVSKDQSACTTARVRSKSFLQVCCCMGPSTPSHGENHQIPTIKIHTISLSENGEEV
Put plainly: Contractile study in isolated male dog bladder neck. To be noted: versus phenylephrine-induced contraction.
Description: as §1, §2

In a further data set the target is T3, human α1C adrenoceptor (Homo sapiens, UniProt P35348).
T3 sequence (P35348 1-466): T1 sequence (P35348 1-466)
Put plainly: biochemical. The format is binding. As for the experimental part:
(§3) These cell lines were prepared by transfecting the cloned cDNA or cloned genomic DNA or constructs containing both genomic DNA and cDNA encoding the human α-adrenoceptors as follows:
The construct involved ligating three partial overlapping fragments: a 5' 0.6 kb HincII genomic clone, a central 1.8 EcoRI hippocampal cDNA clone, and a 3' 0.6 Kb PstI genomic clone. The hippocampal cDNA fragment overlaps with the 5' and 3' genomic clones so that the HincII and PstI sites at the 5' and 3' ends of the cDNA clone, respectively, were utilized for ligation. This full-length clone was cloned into the KpnI site of the expression vector, using the 5' and 3' KpnI sites of the fragment, derived from vector (i.e., pBluescript) and 3'-untranslated sequences, respectively. Stable cell lines were obtained as described above.
(§4) Transfected cells from culture flasks were scraped into 5 ml of 5 mM Tris-HCl, 5 mM EDTA, pH 7.5, and lysed by sonication. The cell lysates were centrifuged at 1000 rpm. for 5 min at 4° C., and the supernatant was centrifuged at 30,000 ×g for 20 min at 4° C. The pellet was suspended in 50 mM Tris-HCl , 1 mM MgCl2, and 0.1% ascorbic acid at pH 7.5. […] The reaction was stopped by filtration through GF/B filters using a cell harvester.

Another data set deals with T4, human α1B adrenoceptor (Homo sapiens, UniProt P35368).
T4 construct: The entire coding region of the α1B receptor (1563 bp); expressed in transfected cells
T4 sequence (P35368 1-520): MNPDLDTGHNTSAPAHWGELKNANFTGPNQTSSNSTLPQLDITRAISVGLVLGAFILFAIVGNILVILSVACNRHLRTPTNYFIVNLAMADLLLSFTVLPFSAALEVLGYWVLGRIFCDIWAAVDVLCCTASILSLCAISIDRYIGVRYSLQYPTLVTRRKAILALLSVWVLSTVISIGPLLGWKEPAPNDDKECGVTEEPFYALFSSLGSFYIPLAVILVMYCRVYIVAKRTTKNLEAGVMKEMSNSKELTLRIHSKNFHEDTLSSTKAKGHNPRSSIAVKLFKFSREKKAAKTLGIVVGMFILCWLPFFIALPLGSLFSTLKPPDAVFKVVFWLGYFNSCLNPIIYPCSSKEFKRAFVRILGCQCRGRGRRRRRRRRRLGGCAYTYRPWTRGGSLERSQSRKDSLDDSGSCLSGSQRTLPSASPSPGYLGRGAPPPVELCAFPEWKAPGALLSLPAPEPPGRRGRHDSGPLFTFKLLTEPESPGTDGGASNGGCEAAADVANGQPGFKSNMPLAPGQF
As to the kind of experiment: Radioligand binding ([3H]prazosin) at cloned human α1B. As for the experimental part: as §3
The construct involved ligating the full-length containing EcoRI brainstem cDNA fragment from λ ZapII into the expression vector. Stable cell lines were obtained as described above.
as §4

The target of a further data set is T5, human α1A adrenoceptor (Homo sapiens, UniProt P25100).
T5 sequence (P25100 1-572): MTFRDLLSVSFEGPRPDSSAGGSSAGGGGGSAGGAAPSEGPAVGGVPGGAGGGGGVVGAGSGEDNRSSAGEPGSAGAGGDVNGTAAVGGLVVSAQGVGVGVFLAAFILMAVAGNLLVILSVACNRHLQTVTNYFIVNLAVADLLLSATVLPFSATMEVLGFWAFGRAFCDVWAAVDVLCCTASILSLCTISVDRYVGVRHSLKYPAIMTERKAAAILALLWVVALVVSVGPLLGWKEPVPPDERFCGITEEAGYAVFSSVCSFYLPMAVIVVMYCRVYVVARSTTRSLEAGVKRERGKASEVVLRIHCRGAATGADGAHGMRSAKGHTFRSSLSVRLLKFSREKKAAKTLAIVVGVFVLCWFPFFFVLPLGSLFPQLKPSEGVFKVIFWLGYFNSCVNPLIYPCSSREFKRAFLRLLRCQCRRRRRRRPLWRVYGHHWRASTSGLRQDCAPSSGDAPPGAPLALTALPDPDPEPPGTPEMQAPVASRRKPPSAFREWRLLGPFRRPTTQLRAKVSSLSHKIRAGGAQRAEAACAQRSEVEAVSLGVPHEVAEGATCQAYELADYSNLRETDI
As to the kind of experiment: biochemical. It counts as binding. As for the experimental part: as §3
The cells were grown, in a controlled environment (37° C., 5% CO2), as monolayers in Dulbecco's modified Eagle's Medium (GIBCO, Grand Island, N.Y.) containing 25 mM glucose and supplemented with 10% bovine calf serum, 100 units/ml penicillin g, and 100 μg/ml streptomycin sulfate.
as §4

In data set [3] the target is T6, rabbit urethra, male (α1-adrenoceptor) (Oryctolagus cuniculus, UniProt O02824).
T6 sequence (O02824 1-466): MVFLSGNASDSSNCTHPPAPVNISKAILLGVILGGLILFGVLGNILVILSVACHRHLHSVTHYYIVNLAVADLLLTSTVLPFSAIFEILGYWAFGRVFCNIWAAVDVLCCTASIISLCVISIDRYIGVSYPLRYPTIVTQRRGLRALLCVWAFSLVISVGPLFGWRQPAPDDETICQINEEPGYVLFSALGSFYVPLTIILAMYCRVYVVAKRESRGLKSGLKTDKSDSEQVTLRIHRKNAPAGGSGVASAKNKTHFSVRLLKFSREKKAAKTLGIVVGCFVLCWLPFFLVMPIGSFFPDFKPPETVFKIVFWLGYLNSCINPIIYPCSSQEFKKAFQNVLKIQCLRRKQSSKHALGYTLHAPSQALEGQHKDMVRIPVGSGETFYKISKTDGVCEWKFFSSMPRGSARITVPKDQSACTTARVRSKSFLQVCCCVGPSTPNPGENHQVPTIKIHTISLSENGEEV
As to the kind of experiment: Contractile study in isolated male rabbit urethra. Conditions: versus phenylephrine-induced contraction.
Description: as §1, §2

Data set [4] concerns the target T7, rabbit urethra, female (α1-adrenoceptor) (Oryctolagus cuniculus, UniProt O02824).
T7 construct: proximal urethra of male humans and male and female rabbits; from tissue; host or cells: rabbit proximal urethra strips, male or female
T7 sequence (O02824 1-466): T6 sequence (O02824 1-466)
Put plainly: Contractile study in isolated female rabbit urethra. Conditions: versus phenylephrine-induced contraction; read-out: pKB Rabbit Urethra Female (converted).
Description: as §1, §2

Data set [5] deals with T8, dog BN, female (α1-adrenoceptor) (Canis lupus, UniProt A0A8I3NK63).
T8 sequence (A0A8I3NK63 1-466): T2 sequence (A0A8I3NK63 1-466)
As to the kind of experiment: Contractile study in isolated female dog bladder neck. To be noted: versus phenylephrine-induced contraction.
Description: as §1, §2

The conditions of data set [6]: cited from earlier work; for major side effect of use in incontinence (blood pressure): dose-dependent; for major side effect of use in incontinence (blood pressure) / CNS side effects in some patients: Andersson and Sjogren, 1982; for CNS side effects in some patients: stimulant actions in the CNS, Wein, 1987.
The conditions of data set [7]: Andersson and Sjogren, 1982; cited from earlier work.
The conditions of data set [8]: prodrug; cited from earlier work.

Regarding `COC(=O)C1=C(C)NC(C)=C(C(=O)OCCCN2CCC(c3ccccc3)(c3ccccc3)CC2)C1c1ccc([N+](=O)[O-])cc1.Cl` (racemic) [Compound 1, (±)-2,6-Dimethyl-4-(4-nitrophenyl)-1,4-dihydro-pyridine-3,5-dicarboxylicacid [3-(4,4-diphenylpiperidin-1-yl)propyl]ester methyl ester hydrochloride], in data set [1], the Kb is 0.00794 µM. The “pKB Dog BN Male” value in [2] is 6.2. The Ki was 0.00316 µM on human α1C adrenoceptor, 0.0794 µM at human α1B adrenoceptor and 0.316 µM on human α1A adrenoceptor.

As to `COc1ccccc1N1CCN(CCN2C(=O)CC3(CCCC3)CC2=O)CC1` [BMY 7378], the “pKB Rabbit Urethra Male” value in data set [3] is listed as 6.5. Besides, the “pKB Dog BN Male” value in data set [2] worked out at 7.1. Besides, the Kb in data set [4] was 0.794 µM. Also, the Ki at human α1B adrenoceptor (Table 2, antagonists, versus 3H-prazosin, read-out: pKI (antagonist affinity, 3H-prazosin binding) hα1B (converted)) is 0.1 µM. Further, the “pKB Dog BN Female” value in data set [5] is on record as 6.8.

Turning to `Clc1cccc(Cl)c1N=C1NCCN1` [clonidine], the “undesirable side effects at therapeutic doses” value in data set [6] (in addition to antihypertensive effect) is “dry mouth, sedation and orthostatic hypotension”.

As for `CN[C@@H](C)[C@H](O)c1ccccc1` [ephedrine], in [6], the “major side effect of use in incontinence (blood pressure)” value (“major side effect of use” below) is “increase in blood pressure”; the “CNS side effects in some patients” value is “insomnia, anxiety and dizziness”.

As to `COc1ccc(OC)c(C(O)CNC(=O)CN)c1` (stereo not drawn) [midodrine], the “clinical efficacy in urinary incontinence” value in [7] is given as “has not been demonstrated conclusively”. Besides, in data set [8], the “in vivo conversion to active phenylethylamine” value was “converted in vivo to the active phenylethylamine ST-1059”.

In the case of `CNC[C@H](O)c1cccc(O)c1` [phenylephrine], the “major side effect of use” value in data set [6] is given as “increase in blood pressure”.

For `CC(N)C(O)c1ccccc1` (stereo not drawn) [phenylpropanolamine], in [6], the “major side effect of use” value is given as “increase in blood pressure”; the “CNS side effects in some patients” value was “insomnia, anxiety and dizziness”.
